Experimental data reported in patent publication US11286268B1, “EIF4E-inhibiting compounds and methods” (EFFECTOR THERAPEUTICS, INC., priority 2019, dated 2022).
Where two headings read alike, the source gives them in different places.

Target: recombinant eIF4E (Homo sapiens (Human), UniProt P06730)
Test: Fluorescence polarization competition assay for eIF4E binding potency
Procedure, shortened: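 IC50 values reflect 50% displacement of 20 nM EDA-m7GDP-ATTO-550 from 75 nM eIF4E, measured by fluorescence polarization after 30 min at room temperature. Buffer: 20 mM Tris pH 7.5, 100 mM NaCl, 1 mM DTT, 0.02% Tween-20; 1% DMSO.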

[1] = fluorescence polarization competition, 75 nM recombinant eIF4E, 20 nM EDA-m7GDP-ATTO-550, IC50 class, read-out: elF4E FP
[2] = inhibition of eIF4E/EDA-m7GDP-ATTO-550 binding by 50%, Table 4B calculated values, read-out: IC50

recombinant eIF4E, sequence (P06730 whole entry): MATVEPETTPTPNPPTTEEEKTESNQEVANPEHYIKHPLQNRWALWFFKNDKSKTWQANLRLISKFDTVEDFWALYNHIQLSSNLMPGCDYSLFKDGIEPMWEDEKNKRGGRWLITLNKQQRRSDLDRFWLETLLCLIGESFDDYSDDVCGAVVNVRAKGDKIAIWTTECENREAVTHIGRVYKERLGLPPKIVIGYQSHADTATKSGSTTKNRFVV

IC50 [1] [nM]	IC50 [2] [nM]	Compound
< 50	46.4	COc1cc(-c2cc(Cl)ccc2OCCn2c(C)nc3cc(C(F)(F)F)cc(C#N)c3c2=O)c2scc(C(=O)O)c2n1 [compound 329]
< 50	47.7	CCc1cc(-c2cc(Cl)ccc2OCCn2c(C)nc3cc(C(F)(F)F)cc(C#N)c3c2=O)c2scc(C(=O)O)c2n1 [compound 330]
< 50	37.7	Cc1nc2cc(C(F)(F)F)cc(C#N)c2c(=O)n1CCOc1ccc(Cl)cc1-c1cc(=O)n(C)c2c(C(=O)O)csc12 [compound 332]
< 50	10.4	Cc1cc(-c2cc(Cl)ccc2OCCn2c(C)nc3cc4c(c(C#N)c3c2=O)CCNC4)c2scc(C(=O)O)c2n1 [compound 334]
50 to 1000	–	Cc1cc(-c2cc(Cl)ccc2OCCn2c(C)nc3cc4c(c(C#N)c3c2=O)CCN(C)C4)c2scc(C(=O)O)c2n1 [compound 335]
< 50	27.9	Cc1cc(-c2cc(Cl)ccc2OCCn2c(C)nc3cc4c(c(C#N)c3c2=O)CN(C)CC4)c2scc(C(=O)O)c2n1 [compound 336]
< 50	25.7	Cc1cc(-c2cc(Cl)ccc2OCCn2c(C)nc3cc(C(F)(F)F)cnc3c2=O)c2scc(C(=O)O)c2n1 [compound 337]
< 50	45.3	CCc1ncc(C#N)c2c(=O)n(CCOc3ccc(Cl)cc3-c3cc(C)nc4c(C(=O)O)csc34)c(C)nc12 [compound 338]
< 50	26.8	Cc1cc(-c2cc(Cl)ccc2OCCn2c(C)nc3c(C4CC4)ncc(C#N)c3c2=O)c2scc(C(=O)O)c2n1 [compound 339]
< 50	5.01	Cc1cc(-c2cc(Cl)ccc2OCCn2c(C)nc3c(C(F)(F)F)ncc(C#N)c3c2=O)c2scc(C(=O)O)c2n1 [compound 340]

Second part, the compound before the results:

Compound	IC50 [1] [nM]	IC50 [2] [nM]
Cc1c(S(C)(=O)=O)c2cc(C(F)(F)F)cc(C#N)c2c(=O)n1CCOc1ccc(Cl)cc1-c1ccnc2c(C(=O)O)csc12 [compound 318]	< 50	2.92
Cc1nc2cc(C(F)(F)F)cc(C#N)c2c(=O)n1CCOc1ccc(Cl)cc1-c1cncc2c(C(=O)O)csc12 [compound 319]	50 to 1000	53.5
Cc1nc2cc(C(F)(F)F)cc(C#N)c2c(=O)n1CCOc1ccc(Cl)cc1-c1ccnc2c(C(=O)O)cn(C)c12 [compound 320]	< 50	43.5
Cc1nc2cc(C(F)(F)F)c(CC3CN(CCF)C3)c(C#N)c2c(=O)n1CCOc1ccc(Cl)cc1-c1ccnc2c(C(=O)O)csc12 [compound 321]	< 50	4.89
Cc1nc2cc(C(F)(F)F)cc(C#N)c2c(=O)n1CCOc1ccc(Cl)cc1-c1cccc2c(C(=O)O)c[nH]c12 [compound 322]	50 to 1000	116
Cc1nc2cc(C(F)(F)F)cc(C#N)c2c(=O)n1CCOc1ccc(Cl)cc1-c1ccnc2c(C(=O)O)c[nH]c12 [compound 323]	50 to 1000	82.6
Cc1nc2cc(C(F)(F)F)cc(C#N)c2c(=O)n1CCOc1ccc(Cl)cc1-c1coc2c(C(=O)O)ccnc12 [compound 324]	50 to 1000	93.3
Cc1nc2cc(C(F)(F)F)cc(C#N)c2c(=O)n1CCOc1ccc(Cl)cc1-c1ccnc2c(C(=O)O)coc12 [compound 325]	50 to 1000	52
Cc1nc2cc(C(F)(F)F)cc(C#N)c2c(=O)n1CCOc1ccc(Cl)cc1N1CCC(C(=O)O)CC1 [compound 326]	> 1000	1440
Cc1nc2cc(C(F)(F)F)cc(C#N)c2c(=O)n1CCOc1ccc(Cl)cc1-c1cccc2c1S(=O)(=O)C=C2C(=O)O [compound 327]	< 50	43.7
Cc1nc2cc(C(F)(F)F)cc(C#N)c2c(=O)n1CCOc1ccc(Cl)cc1N1CCC(CC(=O)O)CC1 [compound 328]	> 1000	1320
Cc1cc(-c2cc(Cl)ccc2OCCn2c(C)nc3cc(C(F)(F)F)cc(C#N)c3c2=O)c2scc(C(=O)O)c2c1F [compound 333]	–	24.9
